According to publication PMC9917264, “Ca^2+-Triggered Coelenterazine-Binding Protein Renilla: Expected and Unexpected Features” (International Journal of Molecular Sciences, 2023):

Biological target: T1, coelenterazine-binding apoprotein (apoCBP) (Renilla muelleri, UniProt C9V488)
T1 construct: gene CBP1; recombinant apoprotein, single chain, 21 kDa
T1 sequence (C9V488 1-186): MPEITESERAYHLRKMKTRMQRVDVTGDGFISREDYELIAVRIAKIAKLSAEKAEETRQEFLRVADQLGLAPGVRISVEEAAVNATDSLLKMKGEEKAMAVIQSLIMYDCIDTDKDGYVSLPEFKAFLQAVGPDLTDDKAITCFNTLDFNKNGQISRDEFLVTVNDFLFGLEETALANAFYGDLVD
Experiment: absorption spectrum of the CBP complex
Settings: Ca2+-free; noncovalent

Which “absorption spectrum of the CBP complex” value does the source give for `Oc1ccc(Cc2nc3c(Cc4ccccc4)nc(-c4ccc(O)cc4)cn3c2O)cc1` [coelenterazine] here?
Its value is “FMZ-apoCBP and CBP spectra obtained under the same conditions are practically identical”.
